# Reference: publication PMC7822874, “Chemoprotective antimalarials identified through quantitative high-throughput screening of Plasmodium blood and liver stage parasites” (Scientific Reports, 2021)
# Where “and” joins values, the source holds several entries; their conditions need not be identical. Equal values may be shown once. Read-outs that look alike come from different tables or passages of the source.
# Columns and labels:
# [1] = tested on: T1, Plasmodium falciparum Dd2-attB (parental line), asexual blood stages; experiment: microbe, parasite or virus in culture; set-up: replicate k of 3 (each line is one of three independent assays; the three lines of one compound and parasite line follow each other); conditions: n = 1; for Individual replicates / Log AC50 (M): 72 h; for AC50: Plasmodium falciparum, DD2, 72 h, read-out: Individual replicates / Log AC50 (converted)
# T1 construct: Dd2-attB, the isogenic parental line
# Experimental: The overexpression of the fumarate-dependent yeast DHODH confers resistance to compounds that inhibit the parasite mETC, or the parasite DHODH enzyme that depends on ubiquinone provided by the parasite mETC. Assays were performed in three independent assays on a subset of compounds, and differences between the Dd2-attB parental line and the ScDHODH transgenic line were analyzed using two-sided Student’s t-tests.
# in vitro = conditions: human
# [2] = tested on: P. berghei-ANKA-GFP-LucCON liver stage parasites in HepG2-A16-CD81EGFP cells; experiment: P. berghei liver stage Pb-Luc assay, Method 1 (UCSD, 1536-well); assay type: cell-based, Plasmodium berghei; conditions: Plasmodium berghei, 48 h, average of 2 wells, 1536-well plate; for activity at 1 µM: nominal 1 uM (10 mM stock), […] for 15 mM, 1.2 uM for 12 mM, 2 uM for 20 mM stock; for activity at 3 µM: nominal 3 uM (10 mM stock), 4.5 uM for 15 mM, 3.6 uM for 12 mM, 6 uM for 20 mM stock
# [3] = tested on: Plasmodium falciparum Dd2 asexual blood stage parasites; experiment: microbe, parasite or virus in culture; set-up: species or system Plasmodium falciparum Dd2 in human erythrocytes; single determination (one 11-point concentration-response curve); conditions: Plasmodium falciparum, DD2, Erythrocyte, 72 h; read-out: AC50
# [4] = repeat 1, read-out: Pb-Luc signal, 1 uM, repeat 1
# [5] = repeat 2, read-out: Pb-Luc signal, 1 uM, repeat 2
# [6] = repeat 3, read-out: Pb-Luc signal, 1 uM, repeat 3
# [7] = repeat 1, read-out: Pb-Luc signal, 3 uM, repeat 1
# [8] = repeat 2, read-out: Pb-Luc signal, 3 uM, repeat 2
# [9] = repeat 3, read-out: Pb-Luc signal, 3 uM, repeat 3
# [10] = HepG2-A16-CD81EGFP cells, uninfected
# [11] = nominal 1 uM (10 mM stock), […] for 15 mM, 1.2 uM for 12 mM, 2 uM for 20 mM stock, average of 2 wells, repeat 2
# [12] = nominal 3 uM (10 mM stock), 4.5 uM for 15 mM, 3.6 uM for 12 mM, 6 uM for 20 mM stock, average of 2 wells, repeat 2
SMILES,Individual replicates / Log AC50 (M) [1],AC50 [1],"viability at 48 h, 1 µM (in vitro)","viability at 48 h, 3 µM (in vitro)","activity at 1 µM [2, 4]","activity at 1 µM [2, 5]","activity at 1 µM [2, 6]","activity at 3 µM [2, 7]","activity at 3 µM [2, 8]","activity at 3 µM [2, 9]","HepG2 viability signal, 1 uM, repeat 2 (HepG2-A16-CD81EGFP cells; human, 48 h, 1 µM)","HepG2 viability signal, 3 uM, repeat 2 (HepG2-A16-CD81EGFP cells; human, 48 h, 3 µM)",AC50 [3],"viability at 48 h, 1 µM (in vitro; [10])","viability at 48 h, 3 µM (in vitro; [10])","HepG2 viability signal, 1 uM, repeat 2 (HepG2-A16-CD81EGFP cells; [11])","HepG2 viability signal, 3 uM, repeat 2 (HepG2-A16-CD81EGFP cells; [12])"
COc1ccc(NC(=O)CN2C(=O)CCn3nc(-c4cccn4C)cc32)cc1Cl [NCGC00132050-02],-4.9986 Log AC50 (M),8.94 µM,–,–,–,–,–,–,–,–,–,–,–,–,–,–,–
O=C(NCCCN1CCNCC1)c1cccc(-c2cc(O)c3ncccc3c2)c1 [NCGC00244531-01],–,15.9 µM,–,–,–,–,–,–,–,–,–,–,–,–,–,–,–
Cc1ccc(CN2C(=O)C(O)(CC(=O)c3ccc(C)cc3)c3ccccc32)cc1 (stereo not drawn) [NCGC00099997-03],–,17.8 µM,–,–,–,–,–,–,–,–,–,–,–,–,–,–,–
CCOC(=O)c1ccncc1Nc1nn(CCN2CCC(F)(F)CC2)c2ccc(F)cc12 [NCGC00388588-01],-4.7486 Log AC50 (M) and -4.7986 Log AC50 (M),15.9 µM,–,–,–,–,–,–,–,–,–,–,–,–,–,–,–
CCOC(=O)CCNc1cc(N2CCc3ccccc3CC2)nc(-c2ccccn2)n1 [NCGC00344626-02],-5.0486 Log AC50 (M) and -5.0986 Log AC50 (M),6.33 µM,–,–,–,–,–,–,–,–,–,–,–,–,–,–,–
O=C(O)c1ccc(O)c2ncc(N3CCN(Cc4ccccc4)CC3)cc12 [NCGC00241045-03],–,17.8 µM,–,–,–,–,–,–,–,–,–,–,–,–,–,–,–
CCC(CC)c1cc([C@H]2CN3CC[C@H]2C[C@@H]3CN[S+](=O)([O-])c2ccccc2C#N)nc(-c2ccncc2)n1 [NCGC00421343-01],–,–,110%,110%,72%,78.5%,103%,49%,52%,66.9%,105.19%,104.55%,1.5 µM,–,–,–,–
Fc1ccc(N2CCCN(C[C@H]3[C@@H]4CNC[C@@H]43)CC2)cc1 [NCGC00435915-01],–,–,–,–,97.7%,120%,120%,53.5%,38.2%,21.5%,–,–,8.41 µM,102%,124%,103.90%,120.28%
CC1=C(C(=O)Nc2ccc(C)cc2C)C(c2ccc([N+](=O)[O-])cc2)n2ncc(C(=O)Nc3ccc(F)cc3)c2N1 (stereo not drawn) [NCGC00126356-01],–,–,–,–,110%,107%,122%,80.3%,94%,83.4%,–,–,2.99 µM,98.5%,94.6%,98.93%,92.77%
Cc1cnc(CC2CCN([S+](=O)([O-])c3ccccc3)CC2)n1Cc1ccccc1 [NCGC00469740-01],–,–,–,–,97.2%,133%,138%,81.1%,76.7%,90.7%,–,–,5.31 µM,94.7%,96.4%,97.06%,98.63%
Cc1ccc(CN2COc3cc(C)c4c(oc(=O)c5ccccc54)c3C2)cc1 [NCGC00116336-01],–,–,–,–,94.2%,106%,96.8%,71.6%,78.2%,92.4%,–,–,1.33 µM,101%,105%,104.57%,104.67%
COc1ccccc1CN1COc2ccc3c(oc(=O)c4ccccc43)c2C1 [NCGC00116378-01],–,–,–,–,85.6%,85.1%,110%,73.3%,86.8%,88.1%,–,–,2.11 µM,106%,108%,104.93%,105.29%
O=C(Nc1ccc2c(N3CCCC3)ncnc2c1)c1cccc(Br)c1 [NCGC00425495-01],–,–,–,–,70.5%,86.1%,85.5%,34.5%,39.4%,21.9%,–,–,0.668 µM,101%,97.5%,101.29%,98.07%
CCc1cccc(-n2c(=O)c3cccnc3n2CC(=O)NCc2ccccc2)c1 [NCGC00128448-01],–,–,–,–,105%,86.8%,118%,150%,109%,92.9%,–,–,1.68 µM,105%,100%,105.26%,100.08%
COc1cccc([C@@H]2CCN(Cc3[nH]c4ccccc4c3C)C[C@H]2O)c1 [NCGC00443267-01],–,–,91.9%,96.2%,83.1%,92.1%,74.1%,85.2%,118%,62.2%,93.46%,93.99%,1.5 µM,–,–,–,–
CC1=C[C@@H](CN(C)C)[C@H](C(C)C)C[C@H]1Cc1nc2ncc(Cl)cc2[nH]1 [NCGC00421128-01],–,–,–,–,85.6%,76%,112%,59.7%,57.2%,82.1%,–,–,21.7 µM,106%,108%,100.56%,100.80%
c1ccc(Nc2cc3c(cn2)CN(Cc2ccc4[nH]ccc4c2)CCN3)cc1 [NCGC00411105-01],–,–,–,–,55.9%,72.5%,17.8%,23.8%,30.2%,10.7%,–,–,1.37 µM,40.4%,43.5%,44.56%,55.41%
Cc1ccc2oc(=O)c3cnn(CC(=O)Nc4cccc(C(F)(F)F)c4)c3c2c1 [NCGC00110933-01],–,–,–,–,106%,124%,113%,86.9%,117%,100%,–,–,2.66 µM,94%,94.8%,99.44%,101.21%
CC(C)C(=O)N1Cc2ccccc2CC2(CCCN(CC3CCCCC3)C2)C1 (stereo not drawn) [NCGC00377456-01],–,–,–,–,94.7%,96.1%,116%,81.5%,98%,85.1%,–,–,0.0531 µM,100%,105%,102.51%,104.36%
COc1ccc(-c2cc([C@H]3CN4CC[C@H]3C[C@@H]4CN[S+](=O)([O-])c3ccc(Cl)cc3)n(C)n2)cc1OC [NCGC00399828-01],–,–,98.9%,99.9%,68.5%,88.1%,52.2%,40.7%,77%,89.6%,102.24%,102.23%,2.99 µM,–,–,–,–
CC1=C(C(=O)Nc2ccc(C)cc2C)C(c2ccc(Br)cc2)n2ncc(C(=O)Nc3cccc(C)c3)c2N1 (stereo not drawn) [NCGC00126300-01],–,–,–,–,94.7%,120%,115%,75.3%,87.7%,102%,–,–,3.35 µM,102%,94.6%,95.30%,90.59%
